Data from patent publication US6255517A, “Thymol derivatives having anti-tumor activity, and anti-cancer agent comprising the same” (Zee; Ok Pyo, priority 1998, dated 2001).

Tests used:
Format in all cases: cell-based
SK-OV-3 = test: SRB cytotoxicity (anti-tumor activity) in vitro, SK-OV-3; conditions: Homo sapiens, SK-OV-3 ovary adenocarcinoma, 48 hours, read-out: ED50 (the source's name)
From the text: (§1) Anti-Tumor (Cyto-Toxicity) Effect in vitro of the Compound According to the Present Invention
(§2) The method for detecting cyto-toxicity employed in the present experiment is Sulforhodamin B Bioassay (SRB) method, which was developed by National Cancer Institute (NCI) in the United States in 1989, for the purpose of measuring anti-tumor activity in vitro.
(§3) The tumor cells used in the experiments via SRB method are listed below:
SK-OV-3: adenocarcinoma, ovary malignant ascites
(§4) The tumor cells listed above are all human tumor cell-lines, which were distributed from NCI in the United States and subcultured in Korea Chemical Institute. As a culture medium, RPMI 1640 culture medium supplemented with 5% FBS (fetal bovine serum) was used. Cultivation was performed in an 5% CO2 incubator with constant temperature (37° C.) and humidity. The subculture was carried out every three or four days, and a solution of 0.25% tyrosine and 3 mM trans-1,2-diaminocyclohexane-n,n,n,n-tetracetic acid (CDTA) dissolved in PBS (phosphate buffered saline) was used in order to release cells from the surface of the container.
(§5) The test compound synthesized according to the present invention was diluted to have a concentration of 30.0 μg/ml, 10.0 μg/ml, 3.0 μg/ml, 1.0 μg/ml, 0.3 μg/ml and 0.1 μg/ml, respectively, and the cyto-toxicity (anti-tumor activity) of the compound was measured. The maximum concentration of the sample was not more than 30.0 μg/ml. In order to prepare the samples for detection, DMSO (dimethylsulfoxide) was used, if necessary. The concentration of DMSO added was not more than 0.5%. Before added to the tumor cells, the sample solution, which was diluted via several steps, is filtered through a Millipore filter. In a sterile condition, the sample for detecting cyto-toxicity was prepared by means of SRB method using human tumor cell-lines such as A549, SK-OV-3, SK-MEL-2, XF498 and HCT15.
(§6) The subcultured tumor cells were released from the surface of instrument by using tyrosine-CDTA solution, and then charged on a 96-well flat bottom microplate to make the cell number 5×10^3 (A549, HCT15), 1×10^4 (SK-MEL-2, XF498) and 2×10^4 (SK-OV-3) for each cell. The tumor cells are attached on the bottom by cultivating in a CO2 incubator. After removing the culture medium by using an aspirator, the medium is eliminated by using log dose of six concentrations. To each well, 100 μl of 10% TCA (trichloroacetic acid) is added, and the plate was left for 1 hour at 4° C. to fix the cells on the bottom surface of the plate.
(§7) Then, the plate was washed with distilled water 5-6 times to completely remove the residual TCA solution, and dried up at room temperature. To each well of the completely dried plate, 100 μl of dye solution, in which 0.4% SRB solution was dissolved, was added to dye the cells for 30 minutes, and the cells were washed with 1% acetic acid to remove excess SRB which was not combined with the cells. The dyed cell plates were dried at room temperature, and 100 μl of 10 mM trisma base solution was added to each well. The solution was mixed by a titer plate shaker for 10 minutes to elute the dye solution. Then, the absorbance at 520 nm was measured by using a microplate reader.
(§8) In order to calculate the cyto-toxicity (anti-tumor activity) of the samples on tumor cells, the number of tumor cells at the point of adding the sample (Tz, zero time), the number of cells when only an excess amount of culture medium was added instead of the sample and cultured for 48 hours (C, control), and the number of cells when each concentration of the sample was added and cultured for 48 hours (T, test) were measured respectively. The cyto-toxicity was determined according to the following formulas:
(§9) When Tz>T: [(T-Tz)/(C-Tz)]×100
(§10) When Tz<T: [(T-Tz)/Tz]×100
(§11) From the calculated values thus obtained, ED50 (50% effective dose) [the concentration when the sample inhibits 50% of the growth of the tumor cells] was determined by the use of data regression tool of LOTUS program. […]

HCT15 = test: SRB cytotoxicity (anti-tumor activity) in vitro, HCT15; conditions: Homo sapiens, HCT-15, HCT15 colon adenocarcinoma, 48 hours, read-out: ED50 (the source's name)
From the text: as §1, §2, §3
HCT15: colon adenocarcinoma
as §4, §5, §6, §7, §8, §9, §10, §11

SK-MEL-2 = test: SRB cytotoxicity (anti-tumor activity) in vitro, SK-MEL-2; conditions: Homo sapiens, SK-MEL-2 malignant melanoma, 48 hours, read-out: ED50 (the source's name)
From the text: as §1, §2, §3
SK-MEL-2: malignant melanoma, metastasis to skin of thigh
as §4, §5, §6, §7, §8, §9, §10, §11

XF498 = test: SRB cytotoxicity (anti-tumor activity) in vitro, XF498; conditions: Homo sapiens, XF498 central nerve system tumor, 48 hours, read-out: ED50 (the source's name)
From the text: as §1, §2, §3
XF498: central nerve system tumor
as §4, §5, §6, §7, §8, §9, §10, §11

A549 = test: SRB cytotoxicity (anti-tumor activity) in vitro, A549; conditions: Homo sapiens; A549 non small cell lung carcinoma; SRB, 48 hours; read-out: ED50 (the source's name)
From the text: as §1, §2, §3
A549: non small cell lungcarcinoma
as §4, §5, §6, §7, §8, §9, §10, §11

**Q.** CC(=O)Oc1ccccc1C1(COC(=O)Cc2ccc([N+](=O)[O-])cc2)CO1 (centres unmarked) [Compound 33-2] was tested. Which IC50 (SK-OV-3) did it give?
**A.** 24.4 µM

**Q.** And the IC50 (HCT15)?
**A.** 17.3 µM

**Q.** What about the IC50 (SK-MEL-2) of the same molecule?
**A.** 14.2 µM

**Q.** What about the IC50 (XF498) of the same molecule?
**A.** 16.4 µM

**Q.** What about the IC50 (A549) of the same molecule?
**A.** 44.3 µM
